Experimental data reported in article PMC5218480 (PLoS ONE, 2017).

Tested on: MV-4-11 cells
Assay: Gene expression microarray analysis (Affymetrix PrimeView) and GSEA
Assay type: cell-based, human
Set-up: RFU PODN (11730768_x_at) / Fold change /veh PODN (11730768_x_at) / RFU LINC00158 (11744669_a_at) / Fold change /veh LINC00158 (11744669_a_at) / RFU DUSP10 (11751237_a_at) / Fold change /veh DUSP10 (11751237_a_at) / RFU ID3 (11757404_x_at) / Fold change /veh ID3 (11757404_x_at) / RFU PLEKHG5 (11737974_s_at) / Fold change /veh PLEKHG5 (11737974_s_at) / RFU LRRC4B (11730491_at) / Fold change /veh LRRC4B (11730491_at) / RFU GIMAP4 (11747438_a_at) / Fold change /veh GIMAP4 (11747438_a_at) / RFU KRT8 (11758183_x_at) / Fold change /veh KRT8 (11758183_x_at) / RFU CNN1 (11734310_a_at) / Fold change /veh CNN1 (11734310_a_at) / RFU VPS37D (11726825_at) / Fold change /veh VPS37D (11726825_at) / RFU C10orf10 (11716522_x_at) / Fold change /veh C10orf10 (11716522_x_at) / RFU KIR2DL2 /// KIR2DL4 /// KIR2DL5A /// KIR2DL5B /// KIR2DS1 /// KIR2DS2 /// KIR2DS3 /// KIR2DS4 /// KIR3DL3 /// KIR3DL3 /// KIR3DS1 (11738374_at) / Fold change /veh KIR2DL2 /// KIR2DL4 /// KIR2DL5A /// KIR2DL5B /// KIR2DS1 /// KIR2DS2 /// KIR2DS3 /// KIR2DS4 /// KIR3DL3 /// KIR3DL3 /// KIR3DS1 (11738374_at) / RFU C1QL1 (11718748_at) / Fold change /veh C1QL1 (11718748_at) / RFU TMPRSS4 (11747572_a_at) / Fold change /veh TMPRSS4 (11747572_a_at) / RFU HAMP (11756126_x_at) / Fold change /veh HAMP (11756126_x_at) / RFU RNFT2 (11725882_a_at) / Fold change /veh RNFT2 (11725882_a_at) / RFU NR4A2 (11747474_a_at) / Fold change /veh NR4A2 (11747474_a_at) / RFU ABCC12 (11746883_a_at) / Fold change /veh ABCC12 (11746883_a_at) / RFU TMEM136 (11760407_x_at) / Fold change /veh TMEM136 (11760407_x_at) / RFU CLDN22 /// WWC2 (11732394_at) / Fold change /veh CLDN22 /// WWC2 (11732394_at) / RFU HLA-DPB1 (11760878_x_at) / Fold change /veh HLA-DPB1 (11760878_x_at) / RFU SPINT1 (11716480_a_at) / Fold change /veh SPINT1 (11716480_a_at) / RFU GAP43 (11754022_s_at) / Fold change /veh GAP43 (11754022_s_at) / RFU A4GNT (11735810_at) / Fold change /veh A4GNT (11735810_at) / RFU PRB3 (11715151_x_at) / Fold change /veh PRB3 (11715151_x_at) / RFU TUBB4B (11761932_at) / Fold change /veh TUBB4B (11761932_at) / RFU CAPN14 (11732068_a_at) / Fold change /veh CAPN14 (11732068_a_at) / RFU TMCC2 (11721928_a_at) / Fold change /veh TMCC2 (11721928_a_at) / RFU IRGQ (11745062_a_at) / Fold change /veh IRGQ (11745062_a_at) / RFU FAM174B (11720279_a_at) / Fold change /veh FAM174B (11720279_a_at) / RFU TMPRSS4 (11748680_a_at) / Fold change /veh TMPRSS4 (11748680_a_at) / RFU FAM212B (11763350_a_at) / Fold change /veh FAM212B (11763350_a_at) / RFU PLEKHG5 (11743358_a_at) / Fold change /veh PLEKHG5 (11743358_a_at) / RFU ZSCAN30 (11745921_a_at) / Fold change /veh ZSCAN30 (11745921_a_at) / RFU CMKLR1 (11741424_a_at) / Fold change /veh CMKLR1 (11741424_a_at) / RFU LOC101060620 /// MAPK8IP1 (11723275_at) / Fold change /veh LOC101060620 /// MAPK8IP1 (11723275_at) / RFU SPTSSB (11747773_x_at) / Fold change /veh SPTSSB (11747773_x_at) / RFU PRSS12 (11739890_at) / Fold change /veh PRSS12 (11739890_at) / RFU BIN1 (11741810_x_at) / Fold change /veh BIN1 (11741810_x_at) / RFU WNT11 (11732464_a_at) / Fold change /veh WNT11 (11732464_a_at) / RFU C10orf10 (11716521_a_at) / Fold change /veh C10orf10 (11716521_a_at) / RFU C5orf56 (11738089_at) / Fold change /veh C5orf56 (11738089_at) / RFU CYB561 (11721691_x_at) / Fold change /veh CYB561 (11721691_x_at) / RFU ANKRD19P (11752326_a_at) / Fold change /veh ANKRD19P (11752326_a_at) / RFU OR2T12 /// OR2T33 /// OR2T8 (11738714_s_at) / Fold change /veh OR2T12 /// OR2T33 /// OR2T8 (11738714_s_at) / RFU VCAN (11748164_a_at) / Fold change /veh VCAN (11748164_a_at) / RFU JSRP1 (11732532_at) / Fold change /veh JSRP1 (11732532_at) / RFU KRTAP10-11 (11738290_x_at) / Fold change /veh KRTAP10-11 (11738290_x_at) / RFU MYO3A (11730013_a_at) / Fold change /veh MYO3A (11730013_a_at) / RFU EBF3 (11725865_a_at) / Fold change /veh EBF3 (11725865_a_at) / RFU CAMK2N1 (11719241_x_at) / Fold change /veh CAMK2N1 (11719241_x_at) / RFU C5orf56 (11738088_a_at) / Fold change /veh C5orf56 (11738088_a_at) / RFU OLFML3 (11715873_a_at) / Fold change /veh OLFML3 (11715873_a_at) / RFU LOC100653217 /// NTM (11731650_a_at) / Fold change /veh LOC100653217 /// NTM (11731650_a_at) / RFU MAPK11 (11762145_a_at) / Fold change /veh MAPK11 (11762145_a_at) / RFU FIZ1 (11724087_x_at) / Fold change /veh FIZ1 (11724087_x_at) / RFU OASL (11726364_x_at) / Fold change /veh OASL (11726364_x_at) / RFU SOX15 (11748057_x_at) / Fold change /veh SOX15 (11748057_x_at) / RFU CD79A (11719716_a_at) / Fold change /veh CD79A (11719716_a_at) / RFU HIST1H1D (11736915_at) / Fold change /veh HIST1H1D (11736915_at) / RFU CASKIN2 (11723855_a_at) / Fold change /veh CASKIN2 (11723855_a_at) / RFU LOC730098 (11760151_x_at) / Fold change /veh LOC730098 (11760151_x_at) / RFU OR4N2 (11742367_at) / Fold change /veh OR4N2 (11742367_at) / RFU PRRT2 (11749266_a_at) / Fold change /veh PRRT2 (11749266_a_at) / RFU SNX32 (11753110_a_at) / Fold change /veh SNX32 (11753110_a_at) / RFU CDHR5 (11726645_a_at) / Fold change /veh CDHR5 (11726645_a_at) / RFU RCAN1 (11760418_a_at) / Fold change /veh RCAN1 (11760418_a_at) / RFU FAM167A (11723789_a_at) / Fold change /veh FAM167A (11723789_a_at) / RFU FAM26E (11764081_at) / Fold change /veh FAM26E (11764081_at) / RFU ISYNA1 (11749810_s_at) / Fold change /veh ISYNA1 (11749810_s_at) / RFU ACY1 (11761880_at) / Fold change /veh ACY1 (11761880_at) / RFU 11764098_at / Fold change /veh 11764098_at / RFU SAMD14 (11745864_x_at) / Fold change /veh SAMD14 (11745864_x_at) / RFU NPB (11741838_a_at) / Fold change /veh NPB (11741838_a_at) / RFU TMPRSS6 (11731388_a_at) / Fold change /veh TMPRSS6 (11731388_a_at) / RFU KRTAP10-2 (11738614_at) / Fold change /veh KRTAP10-2 (11738614_at) / RFU ARHGAP8 /// PRR5-ARHGAP8 (11727945_x_at) / Fold change /veh ARHGAP8 /// PRR5-ARHGAP8 (11727945_x_at) / RFU KRTAP5-7 /// NADSYN1 (11734609_at) / Fold change /veh KRTAP5-7 /// NADSYN1 (11734609_at) / RFU RASL12 (11751679_a_at) / Fold change /veh RASL12 (11751679_a_at) / RFU CDKN2B (11736163_a_at) / Fold change /veh CDKN2B (11736163_a_at) / RFU PRF1 (11729649_at) / Fold change /veh PRF1 (11729649_at) / RFU, ZNF638 /// ZNF638-IT1 / Fold change vs veh, ZNF638 /// ZNF638-IT1 / RFU, PANK3 / Fold change vs veh, PANK3 / RFU, SH3YL1 / Fold change vs veh, SH3YL1 / RFU, ZEB2 / Fold change vs veh, ZEB2 / RFU, NRIP1 / Fold change vs veh, NRIP1 / RFU, PTTG1IP / Fold change vs veh, PTTG1IP / RFU, CAPN2 / Fold change vs veh, CAPN2 / RFU, MED14 / Fold change vs veh, MED14 / RFU, SNORA58 / Fold change vs veh, SNORA58 / RFU, C1orf63 / Fold change vs veh, C1orf63 / RFU, LRRFIP1 / Fold change vs veh, LRRFIP1 / RFU, NDUFAF7 / Fold change vs veh, NDUFAF7 / RFU, SLC12A2 / Fold change vs veh, SLC12A2 / RFU, IBTK / Fold change vs veh, IBTK / RFU, ESF1 / Fold change vs veh, ESF1 / Fold change vs veh, TMEM50B / RFU, TAOK1 / Fold change vs veh, TAOK1 / RFU, ACBD3 / Fold change vs veh, ACBD3 / RFU, TMA16 / Fold change vs veh, TMA16 / RFU, RWDD3 / Fold change vs veh, RWDD3 / RFU, BCAT1 / Fold change vs veh, BCAT1 / RFU, EDEM3 / Fold change vs veh, EDEM3 / RFU, TMEM33 / Fold change vs veh, TMEM33 / RFU, WDR75 / Fold change vs veh, WDR75 / RFU, AHCTF1 / Fold change vs veh, AHCTF1 / RFU, TFRC / Fold change vs veh, TFRC / RFU, ZDHHC17 / Fold change vs veh, ZDHHC17 / RFU, NOM1 / Fold change vs veh, NOM1 / RFU, ARL8B / Fold change vs veh, ARL8B / RFU, ZBTB11 / Fold change vs veh, ZBTB11 / RFU, TAMM41 / Fold change vs veh, TAMM41 / RFU, KIAA1704 /// LOC100996395 / Fold change vs veh, KIAA1704 /// LOC100996395 / RFU, ING1 / Fold change vs veh, ING1 / RFU, TRMT61B / Fold change vs veh, TRMT61B / RFU, FUBP3 / Fold change vs veh, FUBP3 / RFU, TP53 / Fold change vs veh, TP53 / RFU, TNKS2 / Fold change vs veh, TNKS2 / RFU, ZFP14 / Fold change vs veh, ZFP14 / RFU, ACTR2 / Fold change vs veh, ACTR2 / RFU, PPP3R1 / Fold change vs veh, PPP3R1 / RFU, PIK3R1 / Fold change vs veh, PIK3R1 / RFU, HNRNPA1 / Fold change vs veh, HNRNPA1 / RFU, RNF170 / Fold change vs veh, RNF170 / RFU, ZNF28 / Fold change vs veh, ZNF28 / RFU, RNGTT / Fold change vs veh, RNGTT / RFU, OGT / Fold change vs veh, OGT / RFU, BRD1 / Fold change vs veh, BRD1 / RFU, MARS / Fold change vs veh, MARS / RFU, ZNF655 / Fold change vs veh, ZNF655 / RFU, FAHD1 / Fold change vs veh, FAHD1 / RFU, BDP1 / Fold change vs veh, BDP1 / RFU, LRRCC1 / Fold change vs veh, LRRCC1 / RFU, ARID1A / Fold change vs veh, ARID1A / RFU, ZNF146 / Fold change vs veh, ZNF146 / RFU, ZNF330 / Fold change vs veh, ZNF330 / RFU, GPN3 / Fold change vs veh, GPN3 / RFU, C9orf123 / Fold change vs veh, C9orf123 / RFU, N4BP2L2 / Fold change vs veh, N4BP2L2 / RFU, ARFIP1 / Fold change vs veh, ARFIP1 / RFU, FAM179B / Fold change vs veh, FAM179B / RFU, BCL10 / Fold change vs veh, BCL10 / RFU, UHRF1BP1L / Fold change vs veh, UHRF1BP1L / RFU, BET1 / Fold change vs veh, BET1 / RFU, CNOT2 / Fold change vs veh, CNOT2 / RFU, ZNF268 / Fold change vs veh, ZNF268 / Fold change vs veh, ZNF507 / RFU, DGCR2 / Fold change vs veh, DGCR2 / RFU, WDSUB1 / Fold change vs veh, WDSUB1 / Fold change vs veh, HSP90B1 /// MIR3652 / RFU, ADSS / Fold change vs veh, ADSS / RFU, GK / Fold change vs veh, GK / RFU, ZNF148 / Fold change vs veh, ZNF148 / RFU, TAF9 / Fold change vs veh, TAF9 / RFU, SLC1A5 / Fold change vs veh, SLC1A5 / RFU, SLMO2 / Fold change vs veh, SLMO2 / RFU, ABCC4 / Fold change vs veh, ABCC4 / RFU, LOC101060439 /// RAP1B / Fold change vs veh, LOC101060439 /// RAP1B / RFU, RFX7 / Fold change vs veh, RFX7 / RFU, GTPBP10 / Fold change vs veh, GTPBP10 / RFU, CNEP1R1 / Fold change vs veh, CNEP1R1 / RFU, BIVM-ERCC5 /// ERCC5 / Fold change vs veh, BIVM-ERCC5 /// ERCC5 / RFU, ILF3 / Fold change vs veh, ILF3 / RFU 11762660_at / Fold change /veh 11762660_at / RFU VCAN (11757783_s_at) / Fold change /veh VCAN (11757783_s_at) / RFU DDX43 (11728927_at) / Fold change /veh DDX43 (11728927_at) / RFU KRT8 (11758188_x_at) / Fold change /veh KRT8 (11758188_x_at) / RFU NKD1 (11759106_at) / Fold change /veh NKD1 (11759106_at) / RFU SRD5A1 (11742802_a_at) / Fold change /veh SRD5A1 (11742802_a_at) / RFU TPSAB1 /// TPSB2 (11721975_s_at) / Fold change /veh TPSAB1 /// TPSB2 (11721975_s_at) / RFU GSTM3 (11746129_a_at) / Fold change /veh GSTM3 (11746129_a_at) / RFU IL23R (11737362_x_at) / Fold change /veh IL23R (11737362_x_at) / RFU TMEM51 (11727254_a_at) / Fold change /veh TMEM51 (11727254_a_at) / RFU PIWIL2 (11732686_x_at) / Fold change /veh PIWIL2 (11732686_x_at) / RFU ORM1 (11744905_x_at) / Fold change /veh ORM1 (11744905_x_at) / RFU CCDC152 (11743942_at) / Fold change /veh CCDC152 (11743942_at) / RFU ECM1 (11717891_a_at) / Fold change /veh ECM1 (11717891_a_at) / RFU IL23R (11748794_a_at) / Fold change /veh IL23R (11748794_a_at) / RFU TNFAIP8L3 (11732012_x_at) / Fold change /veh TNFAIP8L3 (11732012_x_at) / RFU MBOAT4 (11741988_at) / Fold change /veh MBOAT4 (11741988_at) / RFU 11764193_at / Fold change /veh 11764193_at / RFU TMEM53 (11763286_at) / Fold change /veh TMEM53 (11763286_at) / RFU MAGEB2 (11727129_at) / Fold change /veh MAGEB2 (11727129_at) / RFU TMEM200A (11744735_a_at) / Fold change /veh TMEM200A (11744735_a_at) / RFU CCDC152 (11751479_a_at) / Fold change /veh CCDC152 (11751479_a_at) / RFU FAM211A (11726209_a_at) / Fold change /veh FAM211A (11726209_a_at) / RFU RGS16 (11746705_a_at) / Fold change /veh RGS16 (11746705_a_at) / RFU VCAN (11755009_s_at) / Fold change /veh VCAN (11755009_s_at) / RFU RHOB (11743442_s_at) / Fold change /veh RHOB (11743442_s_at) / RFU RGS16 (11720943_a_at) / Fold change /veh RGS16 (11720943_a_at) / RFU RGS16 (11720944_at) / Fold change /veh RGS16 (11720944_at) / RFU, VPS4B / Fold change vs veh, VPS4B / RFU, CREB1 / Fold change vs veh, CREB1 / RFU, DNAJC13 / Fold change vs veh, DNAJC13 / RFU, GNAQ / Fold change vs veh, GNAQ / RFU, CDK5R1 / Fold change vs veh, CDK5R1 / RFU, ZRANB3 / Fold change vs veh, ZRANB3 / RFU, CUL4A / Fold change vs veh, CUL4A / RFU, CCNY / Fold change vs veh, CCNY / RFU, UFL1 / Fold change vs veh, UFL1 / RFU, COG3 / Fold change vs veh, COG3 / RFU, DIAPH2 / Fold change vs veh, DIAPH2 / RFU, SKA2 / Fold change vs veh, SKA2 / RFU, AFF3 / Fold change vs veh, AFF3 / RFU, LMF1 / Fold change vs veh, LMF1 / RFU, IPO11 / Fold change vs veh, IPO11 / RFU, DFFB / Fold change vs veh, DFFB / RFU, FOXP1 / Fold change vs veh, FOXP1 / RFU, CARD8 / Fold change vs veh, CARD8 / RFU, STRN3 / Fold change vs veh, STRN3 / RFU, ADK / Fold change vs veh, ADK / RFU, RASSF2 / Fold change vs veh, RASSF2 / RFU, WIPF1 / Fold change vs veh, WIPF1 / RFU, LARP1B / Fold change vs veh, LARP1B / RFU, RASA1 / Fold change vs veh, RASA1 / RFU, RB1 / Fold change vs veh, RB1 / RFU, PPFIA1 / Fold change vs veh, PPFIA1 / RFU, MAT2A / Fold change vs veh, MAT2A / RFU, CCT5 / Fold change vs veh, CCT5 / RFU, WDR92 / Fold change vs veh, WDR92 / RFU, CUX1 / Fold change vs veh, CUX1 / RFU, TTC7A / Fold change vs veh, TTC7A / RFU, TMEM135 / Fold change vs veh, TMEM135 / RFU, DEPTOR / Fold change vs veh, DEPTOR / RFU, CPM / Fold change vs veh, CPM / RFU, DNAJB6 / Fold change vs veh, DNAJB6 / RFU, CACNA2D3 / Fold change vs veh, CACNA2D3 / RFU, DTX4 / Fold change vs veh, DTX4 / RFU, TFCP2 / Fold change vs veh, TFCP2 / RFU, GMCL1 /// GMCL1P1 / Fold change vs veh, GMCL1 /// GMCL1P1 / RFU, AEBP2 / Fold change vs veh, AEBP2 / RFU, SNHG1 /// SNORD22 /// SNORD25 /// SNORD26 /// SNORD27 /// SNORD28 /// SNORD29 /// SNORD31 / Fold change vs veh, SNHG1 /// SNORD22 /// SNORD25 /// SNORD26 /// SNORD27 /// SNORD28 /// SNORD29 /// SNORD31 / Fold change (Aza/veh), C12orf56 (ProbeSet 11735607_a_at) / Fold change (ACY-1035/veh), C12orf56 (ProbeSet 11735607_a_at) / Fold change (Aza/veh), FGFR1OP (ProbeSet 11751329_s_at) / Fold change (ACY-1035/veh), FGFR1OP (ProbeSet 11751329_s_at) / Fold change (Aza/veh), VPS36 (ProbeSet 11739960_a_at) / Fold change (ACY-1035/veh), VPS36 (ProbeSet 11739960_a_at) / RFU SYPL1 (11715823_x_at) / Fold change /veh SYPL1 (11715823_x_at) / RFU IGFBP7 (11715501_s_at) / Fold change /veh IGFBP7 (11715501_s_at) / RFU REEP3 (11722064_at) / Fold change /veh REEP3 (11722064_at) / RFU IGLL1 (11728026_x_at) / Fold change /veh IGLL1 (11728026_x_at): dose or concentration left out as unconfirmed
Conditions: ProbeSet 11717876_a_at; LIST D

SMILES: Nc1ncn([C@@H]2O[C@H](CO)[C@@H](O)[C@H]2O)c(=O)n1 [azacitidine]
- RFU, PPFIA1: 24.22 RFU
